Measured values reported in patent publication US9427415B2, “Methods and compositions for modifying sensorial perception” (The Procter & Gamble Company, priority 2014, dated 2016).
Like-named read-outs stand apart in the source and are kept apart here.

What was measured:
TRPA1V1 = test: Intracellular calcium (Fluo-4, FLIPR) activation of TRPA1V1 cells (co-expressing TRPA1 and TRPV1) by GRAS compounds; type: cell-based, human;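 further: HEK293 cells co-expressing TRPA1 and TRPV1, fluorescence read at 488/514 nm after baseline subtraction, recorded every 2 s over 10 min, ionomycin 10 µM and buffer as controls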
human TRPV1 = target: T1, human TRPV1 (Homo sapiens, UniProt Q8NER1, M315I/T336M); test: Intracellular calcium (Fluo-4, FLIPR) activation of TRPV1 cells by GRAS compounds; type: cell-based;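 further: TRPV1-expressing cells, FLIPR fluorescence at 488/514 nm with baseline subtracted, sampled every 2 s for 10 min after adding compound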
T1 construct: expressed in transfected cells; pcDNA3 control cells

human TRPA1 = target: T2, human TRPA1 (Homo sapiens, UniProt O75762, K186N/R3C/R58T); test: Intracellular calcium (Fluo-4, FLIPR) activation of TRPA1 cells by GRAS compounds; type: cell-based;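 further: TRPA1-expressing cells, fluorescence read on a FLIPR Tetra (ex 488 nm, em 514 nm) every 2 s for 10 min after compound addition, baseline subtracted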
T2 construct: expressed in transfected cells; pcDNA3 control cells

[1] = Table 1(a), 1 mM, relative to AITC 30 μM, average of three plates
[2] = Table 1(c), 1 mM, relative to AITC 30 μM
[3] = Table 1(a), 1 mM, relative to capsaicin 350 nM, average of three plates, read-out: V1 activation, % of agonist value
[4] = Table 1(a), 1 mM, relative to AITC 30 μM, average of three plates, read-out: A1 activation, % of agonist value
[5] = Table 1(c), 1 mM, relative to AITC 30 μM, read-out: A1 activation, % of agonist value
[6] = statement in description, see Table 1(i)
[7] = Table 1(a), 1 mM, relative to capsaicin 350 nM, average of three plates
[8] = Table 1(b), 1 mM, relative to AITC 30 μM
[9] = Table 1(b), 1 mM, relative to capsaicin 350 nM, read-out: V1 activation, % of agonist value
[10] = Table 1(b), 1 mM, relative to AITC 30 μM, read-out: A1 activation, % of agonist value

T1 sequence (Q8NER1 whole entry M315I/T336M): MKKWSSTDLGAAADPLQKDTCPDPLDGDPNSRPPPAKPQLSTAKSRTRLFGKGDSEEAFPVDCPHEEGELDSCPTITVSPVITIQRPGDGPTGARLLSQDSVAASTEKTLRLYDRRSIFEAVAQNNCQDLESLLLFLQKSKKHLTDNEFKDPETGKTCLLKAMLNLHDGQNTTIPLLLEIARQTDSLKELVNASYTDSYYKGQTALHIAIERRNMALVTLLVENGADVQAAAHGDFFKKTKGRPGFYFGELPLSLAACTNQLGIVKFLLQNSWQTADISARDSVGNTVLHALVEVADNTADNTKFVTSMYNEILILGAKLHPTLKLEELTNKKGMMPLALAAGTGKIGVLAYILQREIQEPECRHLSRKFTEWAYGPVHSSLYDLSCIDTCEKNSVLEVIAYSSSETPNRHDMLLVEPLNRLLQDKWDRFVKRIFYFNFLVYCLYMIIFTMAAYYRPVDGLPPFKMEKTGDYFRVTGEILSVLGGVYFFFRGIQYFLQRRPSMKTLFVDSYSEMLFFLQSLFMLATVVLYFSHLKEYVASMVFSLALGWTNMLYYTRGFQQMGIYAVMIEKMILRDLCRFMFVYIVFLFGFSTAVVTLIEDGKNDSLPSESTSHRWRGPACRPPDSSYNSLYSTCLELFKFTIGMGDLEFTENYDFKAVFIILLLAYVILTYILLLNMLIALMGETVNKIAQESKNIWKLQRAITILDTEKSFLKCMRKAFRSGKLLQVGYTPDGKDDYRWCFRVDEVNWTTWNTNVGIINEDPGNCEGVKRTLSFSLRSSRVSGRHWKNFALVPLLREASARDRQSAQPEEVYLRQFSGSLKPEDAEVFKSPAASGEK
T2 sequence (O75762 whole entry R3C/R58T/K186N): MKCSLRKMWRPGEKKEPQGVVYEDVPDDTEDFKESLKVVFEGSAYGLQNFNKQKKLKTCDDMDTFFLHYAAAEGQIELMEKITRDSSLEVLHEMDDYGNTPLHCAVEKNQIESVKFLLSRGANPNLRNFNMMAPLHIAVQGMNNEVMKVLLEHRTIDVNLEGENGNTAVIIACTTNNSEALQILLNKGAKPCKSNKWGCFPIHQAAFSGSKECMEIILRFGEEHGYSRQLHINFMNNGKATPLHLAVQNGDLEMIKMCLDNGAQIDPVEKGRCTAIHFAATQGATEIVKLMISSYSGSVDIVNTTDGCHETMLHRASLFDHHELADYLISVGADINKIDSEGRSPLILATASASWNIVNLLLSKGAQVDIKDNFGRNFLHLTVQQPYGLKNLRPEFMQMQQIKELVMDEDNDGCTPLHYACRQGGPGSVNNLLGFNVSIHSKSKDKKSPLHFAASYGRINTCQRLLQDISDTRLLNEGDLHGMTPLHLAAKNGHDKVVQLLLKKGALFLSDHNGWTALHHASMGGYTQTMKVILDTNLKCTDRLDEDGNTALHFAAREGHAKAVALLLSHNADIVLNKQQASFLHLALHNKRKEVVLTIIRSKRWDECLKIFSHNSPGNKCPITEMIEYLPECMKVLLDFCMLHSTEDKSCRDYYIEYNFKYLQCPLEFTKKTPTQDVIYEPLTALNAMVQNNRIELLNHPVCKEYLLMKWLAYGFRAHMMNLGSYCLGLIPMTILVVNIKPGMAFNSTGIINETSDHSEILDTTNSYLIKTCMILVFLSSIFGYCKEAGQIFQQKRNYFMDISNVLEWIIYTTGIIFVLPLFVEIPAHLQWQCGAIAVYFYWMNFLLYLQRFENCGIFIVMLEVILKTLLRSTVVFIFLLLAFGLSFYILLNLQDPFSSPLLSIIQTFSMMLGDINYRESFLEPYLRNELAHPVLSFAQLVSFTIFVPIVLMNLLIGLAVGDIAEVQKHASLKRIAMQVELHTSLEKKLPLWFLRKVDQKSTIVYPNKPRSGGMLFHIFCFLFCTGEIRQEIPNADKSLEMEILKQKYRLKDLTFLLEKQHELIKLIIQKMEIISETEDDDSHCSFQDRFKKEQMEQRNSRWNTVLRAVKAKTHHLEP

Compound: CCCSSc1ccoc1C [Propyl 2-methyl-3-furyl disulfide]
- A1V1 activation, % of agonist value (TRPA1V1; [1]): 194.3%
- A1V1 activation, % of agonist value (TRPA1V1; [2]): 242.5%
- activation at 1000 µM (human TRPV1; [3]): 25%
- activation at 1000 µM (human TRPA1; [4]): 210%
- activation at 1000 µM (human TRPA1; [5]): 266%

Compound: CCCOC(=O)c1ccc(O)cc1 [Propylparaben]
- A1V1 activation, % of agonist value (TRPA1V1; Table 1(i), 1 mM, relative to AITC 30 μM or capsaicin 350 nM depending on compound, […]): 2.1%
- activation at 1000 µM (human TRPV1; Table 1(i), 1 mM, relative to capsaicin 350 nM, […], read-out: V1 activation, % of agonist value): 1.6%
- activation at 1000 µM (human TRPA1; Table 1(i), 1 mM, relative to AITC 30 μM, […], read-out: A1 activation, % of agonist value): 93.2%
- TRPA1 activation selectivity, in words (human TRPA1; [6]): TRPA1 activator which does not modulate TRPV1 or TRPA1V1

Compound: CC(=O)/C=C/C=C(\C)CCC=C(C)C [Pseudoionone]
- A1V1 activation, % of agonist value (TRPA1V1; [1]): 127.2%
- V1 activation, % of agonist value (human TRPV1; [7]): 20.76%
- A1 activation, % of agonist value (human TRPA1; [1]): 105.5%

Compound: CC/C=C\CCOC(=O)C(C)=O [Pyruvic caid cis-3-hexen-1-yl ester]
- A1V1 activation, % of agonist value (TRPA1V1; [1]): 40%
- V1 activation, % of agonist value (human TRPV1; [7]): 21%
- A1 activation, % of agonist value (human TRPA1; [1]): 45%

Compound: CCCCCCCCCCCCCCCC(=O)OC/C=C(C)/C=C/C=C(C)/C=C/C1=C(C)CCCC1(C)C [Retinol palmitate]
- A1V1 activation, % of agonist value (TRPA1V1; [1]): 76.97%
- activation at 1000 µM (human TRPV1; [3]): 32.8%
- activation at 1000 µM (human TRPA1; [4]): 76.4%

Compound: O=C1NS(=O)(=O)c2ccccc21 [Saccharin]
- A1V1 activation, % of agonist value (TRPA1V1): 93.25%
- activation at 1000 µM (human TRPV1; read-out: V1 activation, % of agonist value): 80.8%
- activation at 1000 µM (human TRPA1; read-out: A1 activation, % of agonist value): 92.6%

Compound: Cc1ccc(C(C)C)c(O)c1 [Thymol]
- A1V1 activation, % of agonist value (TRPA1V1; [8]): 105.7%
- activation at 1000 µM (human TRPV1; [9]): 106%
- activation at 1000 µM (human TRPA1; [10]): 159%

Compound: CCCCCC/C=C/C=C/C=O [Trans,trans-2,4-undecadien-1-al]
- A1V1 activation, % of agonist value (TRPA1V1; Table 1(b), 100 μM (*), relative to AITC 30 μM): 38.4%
- A1V1 activation, % of agonist value (TRPA1V1; [2]): 85.4%
- activation at 100 µM (human TRPV1; Table 1(b), 100 μM (*), relative to capsaicin 350 nM, read-out: V1 activation, % of agonist value): 87.5%
- activation at 100 µM (human TRPA1; Table 1(b), 100 μM (*), relative to AITC 30 μM, read-out: A1 activation, % of agonist value): 74%
- activation at 1000 µM (human TRPA1; [5]): 86.4%

Compound: CCCCC/C=C/CO [Trans-2-Octen-1-ol]
- A1V1 activation, % of agonist value (TRPA1V1; [1]): 103.2%
- activation at 1000 µM (human TRPV1; [3]): 26%
- activation at 1000 µM (human TRPA1; [4]): 118%

Compound: COc1cc(C2OCC(C)O2)ccc1O (stereo not drawn) [Vanillin propylene glycol acetal]
- A1V1 activation, % of agonist value (TRPA1V1; [8]): 94.49%
- V1 activation, % of agonist value (human TRPV1; Table 1(b), 1 mM, relative to capsaicin 350 nM): 57.97%
- A1 activation, % of agonist value (human TRPA1; [8]): 76.21%

Compound: CCOCc1ccc(O)c(OC)c1 [Vanillyl ethyl ether]
- A1V1 activation, % of agonist value (TRPA1V1; [1]): 59.64%
- activation at 1000 µM (human TRPV1; [3]): 67.6%
- activation at 1000 µM (human TRPA1; [4]): 38%

Compound: COc1cc(CCC(C)=O)ccc1O [Vanillylacetone]
- A1V1 activation, % of agonist value (TRPA1V1; [8]): 37.75%
- activation at 1000 µM (human TRPV1; [9]): 60%
- activation at 1000 µM (human TRPA1; [10]): 22.3%

Compound: C=CCc1cccc(OC)c1O [o-Eugenol]
- A1V1 activation, % of agonist value (TRPA1V1; [1]): 158.3%
- V1 activation, % of agonist value (human TRPV1; [7]): 64.5%
- A1 activation, % of agonist value (human TRPA1; [1]): 128.4%

Compound: Desoxycholic acid
- A1V1 activation, % of agonist value (TRPA1V1; Table 1(i), 100 μM (*), relative to AITC 30 μM or capsaicin 350 nM depending on compound, […]): 2.9%
- V1 activation, % of agonist value (human TRPV1; Table 1(i), 100 μM (*), relative to capsaicin 350 nM, […]): 84.4%
- TRPV1 activation selectivity, in words (human TRPV1; [6]): TRPV1 activators which do not modulate TRPA1 or TRPA1V1
- A1 activation, % of agonist value (human TRPA1; Table 1(i), 100 μM (*), relative to AITC 30 μM, […]): 3.2%
